# Measurements as given in patent US20210179655A1, “Prodrugs of a JAK Inhibitor Compound for Treatment of Gastrointestinal Inflammatory Disease” (THERAVANCE BIOPHARMA R&D IP, LLC, priority 2015, published 2021).
# What was measured:
# JAK2 = JAK2 (Homo sapiens, UniProt O60674); assay: Biochemical JAK kinase assay (LanthaScreen) JAK2
# Description: (§1) A panel of four LanthaScreen JAK biochemical assays (JAK1, 2, 3 and Tyk2) were carried in a common kinase reaction buffer (50 mM HEPES, pH 7.5, 0.01% Brij-35, 10 mM MgCl2, and 1 mM EGTA). Recombinant GST-tagged JAK enzymes and a GFP-tagged STAT1 peptide substrate were obtained from Life Technologies.
# (§2) Serially diluted compounds were pre-incubated with each of the four JAK enzymes and the substrate in white 384-well microplates (Corning) at ambient temperature for 1 h. ATP was subsequently added to initiate the kinase reactions in 10 μL total volume, with 1% DMSO. […] The JAK1 kinase activity was also tested at 1 mM ATP concentration. […] The plates were allowed to incubate at ambient temperature for 1 h before being read on the EnVision reader (Perkin Elmer).
# (§3) For dose-response analysis, percent inhibition data were plotted vs. compound concentrations, and IC50 values were determined from a 4-parameter robust fit model with the Prism software (GraphPad Software). Results were expressed as pIC50 (negative logarithm of IC50) and subsequently converted to pKi (negative logarithm of dissociation constant, Ki) using the Cheng-Prusoff equation.
# [1] = Metabolic stability in homogenates from rat upper and lower intestinal content; type: in vitro ADME; conditions: 37° C.; for half-life: 10 μM; for half-life at 10 μM: rat, diluted 1:10 in DPBS
# Description: The conversion of compound 1 to tofacitinib was evaluated in the intestinal lumen content prepared from the various GI segments isolated from freshly sacrificed rats. Each segment of content from the duodenum, jejunum, ileum, and colon was diluted 1:10 in Dulbecco's phosphate buffer saline (DPBS) solution. […] The incubation was conducted in a water bath at 37° C. and time points were taken at 0, 5, 10, 20, 40 and 60 min. The total incubation volume was 400 μL and 40 μL aliquots were taken at each time point and diluted into 160 μL of 97% ACN+3% formic acid+an internal standard. The samples were centrifuged at 2200 rcf for 10 min and 50 μL of supernatant was diluted into 150 μL of water+1% formic acid.
# JAK1 = JAK1 (Homo sapiens, UniProt P23458); assay: Biochemical JAK kinase assay (LanthaScreen) JAK1
# JAK1, sequence (P23458 whole entry): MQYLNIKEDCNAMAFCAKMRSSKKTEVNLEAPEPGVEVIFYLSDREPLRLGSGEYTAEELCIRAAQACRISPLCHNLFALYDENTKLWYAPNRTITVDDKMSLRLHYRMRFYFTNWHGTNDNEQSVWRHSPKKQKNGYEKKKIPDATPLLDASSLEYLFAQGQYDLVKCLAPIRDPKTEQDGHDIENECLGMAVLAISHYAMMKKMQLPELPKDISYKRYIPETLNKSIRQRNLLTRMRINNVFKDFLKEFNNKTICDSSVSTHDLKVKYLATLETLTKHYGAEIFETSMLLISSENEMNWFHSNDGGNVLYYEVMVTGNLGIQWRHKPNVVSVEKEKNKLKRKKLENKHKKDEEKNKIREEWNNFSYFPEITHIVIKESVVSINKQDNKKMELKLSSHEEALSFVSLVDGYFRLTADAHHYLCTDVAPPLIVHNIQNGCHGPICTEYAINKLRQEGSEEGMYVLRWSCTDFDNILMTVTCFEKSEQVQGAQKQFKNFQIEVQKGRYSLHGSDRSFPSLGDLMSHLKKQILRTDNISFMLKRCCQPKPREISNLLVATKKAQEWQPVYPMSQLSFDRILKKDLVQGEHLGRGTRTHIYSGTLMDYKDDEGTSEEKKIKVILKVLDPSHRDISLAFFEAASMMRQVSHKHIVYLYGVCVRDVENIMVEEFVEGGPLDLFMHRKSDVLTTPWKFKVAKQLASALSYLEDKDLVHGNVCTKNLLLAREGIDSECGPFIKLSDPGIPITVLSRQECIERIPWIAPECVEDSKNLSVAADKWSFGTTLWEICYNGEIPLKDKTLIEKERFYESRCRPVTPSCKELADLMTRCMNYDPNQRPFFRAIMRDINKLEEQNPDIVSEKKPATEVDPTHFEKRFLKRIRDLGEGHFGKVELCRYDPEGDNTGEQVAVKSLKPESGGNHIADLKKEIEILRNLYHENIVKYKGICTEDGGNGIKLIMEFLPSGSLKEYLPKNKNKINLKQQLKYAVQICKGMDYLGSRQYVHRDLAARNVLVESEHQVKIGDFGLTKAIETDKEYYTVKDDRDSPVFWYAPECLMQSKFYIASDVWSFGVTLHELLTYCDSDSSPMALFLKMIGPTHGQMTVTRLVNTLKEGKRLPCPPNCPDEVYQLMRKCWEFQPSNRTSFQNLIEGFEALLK
# Description: as §1, §2, §3
# [2] = Oral pharmacokinetics of compound 1 in cynomolgus monkey; type: in vivo; conditions: oral administration of the prodrug
# JAK3 = target: T1, JAK3 (Homo sapiens, UniProt P52333); assay: Biochemical JAK kinase assay (LanthaScreen) JAK3
# T1 sequence (P52333 1-1124): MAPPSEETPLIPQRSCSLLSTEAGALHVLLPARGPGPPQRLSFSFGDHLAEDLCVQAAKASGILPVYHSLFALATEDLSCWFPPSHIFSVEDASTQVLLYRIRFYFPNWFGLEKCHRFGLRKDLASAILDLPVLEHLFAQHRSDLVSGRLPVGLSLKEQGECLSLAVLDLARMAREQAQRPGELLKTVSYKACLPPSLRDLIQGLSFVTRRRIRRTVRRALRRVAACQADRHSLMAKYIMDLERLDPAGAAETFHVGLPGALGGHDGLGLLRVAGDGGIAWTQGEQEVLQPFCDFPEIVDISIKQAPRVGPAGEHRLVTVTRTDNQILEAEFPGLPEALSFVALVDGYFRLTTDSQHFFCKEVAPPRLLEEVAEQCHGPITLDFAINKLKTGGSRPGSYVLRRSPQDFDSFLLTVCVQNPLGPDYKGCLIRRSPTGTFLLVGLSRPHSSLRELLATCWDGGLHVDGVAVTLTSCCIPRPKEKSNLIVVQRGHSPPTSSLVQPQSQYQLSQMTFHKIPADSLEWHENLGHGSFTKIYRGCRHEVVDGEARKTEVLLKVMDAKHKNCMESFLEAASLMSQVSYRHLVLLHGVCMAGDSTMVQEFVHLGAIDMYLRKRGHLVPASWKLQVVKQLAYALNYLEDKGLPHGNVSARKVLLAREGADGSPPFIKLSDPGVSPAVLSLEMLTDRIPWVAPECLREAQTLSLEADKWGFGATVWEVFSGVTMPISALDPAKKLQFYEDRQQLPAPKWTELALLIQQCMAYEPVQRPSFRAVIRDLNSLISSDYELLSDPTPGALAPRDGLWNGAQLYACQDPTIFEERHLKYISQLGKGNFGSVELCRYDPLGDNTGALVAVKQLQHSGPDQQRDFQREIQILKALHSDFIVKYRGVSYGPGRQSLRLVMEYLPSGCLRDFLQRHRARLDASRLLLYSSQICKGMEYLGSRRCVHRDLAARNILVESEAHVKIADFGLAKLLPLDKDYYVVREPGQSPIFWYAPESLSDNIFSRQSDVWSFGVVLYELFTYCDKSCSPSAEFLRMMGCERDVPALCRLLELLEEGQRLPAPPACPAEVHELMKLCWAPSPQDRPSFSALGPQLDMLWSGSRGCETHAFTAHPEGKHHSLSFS
# Description: as §1, §2, §3
# JAK2, sequence (O60674 whole entry): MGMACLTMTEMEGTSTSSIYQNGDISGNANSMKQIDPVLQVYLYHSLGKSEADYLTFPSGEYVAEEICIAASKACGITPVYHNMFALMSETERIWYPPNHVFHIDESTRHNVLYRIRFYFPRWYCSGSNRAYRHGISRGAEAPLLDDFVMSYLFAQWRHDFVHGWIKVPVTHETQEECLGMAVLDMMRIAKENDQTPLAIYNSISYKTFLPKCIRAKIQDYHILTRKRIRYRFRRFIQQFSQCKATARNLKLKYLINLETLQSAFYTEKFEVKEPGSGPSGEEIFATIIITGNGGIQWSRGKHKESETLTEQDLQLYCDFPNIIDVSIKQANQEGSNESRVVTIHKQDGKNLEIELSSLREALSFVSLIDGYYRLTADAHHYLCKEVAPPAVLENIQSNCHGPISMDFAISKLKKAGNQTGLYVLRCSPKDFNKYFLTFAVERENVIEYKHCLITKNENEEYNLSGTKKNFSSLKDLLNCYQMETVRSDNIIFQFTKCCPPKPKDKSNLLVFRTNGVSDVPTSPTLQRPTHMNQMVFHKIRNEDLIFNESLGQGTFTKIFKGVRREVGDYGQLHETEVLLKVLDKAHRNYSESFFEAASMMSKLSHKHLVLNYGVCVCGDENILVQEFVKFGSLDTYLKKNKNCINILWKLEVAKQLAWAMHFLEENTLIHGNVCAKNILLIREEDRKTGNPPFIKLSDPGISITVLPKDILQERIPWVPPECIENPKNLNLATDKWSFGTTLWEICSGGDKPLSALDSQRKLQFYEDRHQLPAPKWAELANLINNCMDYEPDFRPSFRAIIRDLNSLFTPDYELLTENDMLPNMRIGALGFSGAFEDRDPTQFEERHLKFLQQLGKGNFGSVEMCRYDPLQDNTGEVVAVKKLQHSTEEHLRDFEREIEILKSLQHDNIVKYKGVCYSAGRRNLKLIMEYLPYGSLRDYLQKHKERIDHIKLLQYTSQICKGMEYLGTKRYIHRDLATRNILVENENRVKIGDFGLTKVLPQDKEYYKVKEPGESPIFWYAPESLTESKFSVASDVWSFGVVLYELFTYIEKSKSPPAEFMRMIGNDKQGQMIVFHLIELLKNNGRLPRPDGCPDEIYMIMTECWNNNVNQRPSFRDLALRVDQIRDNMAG
smiles,measurement,setting,value
"C[C@@H]1CCN(C(=O)CC#N)C[C@@H]1N(C)c1ncnc2c1ccn2C(=O)N(C)CCN(C)C(=O)OCc1ccc(O[C@@H]2O[C@H](C(=O)O)[C@@H](O)[C@H](O)[C@H]2O)c([N+](=O)[O-])c1 [Compound 1, (2S,3S,4S,5R,6S)-6-(4-((((2-(4-(((3R,4R)-1-(2-cyanoacetyl)-4-methylpiperidin-3-yl)(methyl)amino)-N-methyl-7H-pyrrolo[2,3-d]pyrimidine-7-carboxamido)ethyl)(methyl)carbamoyl)oxy)methyl)-2-nitrophenoxy)-3,4,5-trihydroxytetrahydro-2H-pyran-2-carboxylic acid]",Ki,JAK2,> 631 nM
same,half-life,[1]; Colon content,<5 min
same,half-life,[1]; Duodenum content,>60 min
same,half-life,[1]; Jejunum content,>60 min
same,half-life at 10 μM,"[1]; colon lumen content, Colon content",< 5 min
same,half-life at 10 μM,"[1]; duodenum lumen content, Duodenum content",> 60 min
same,half-life at 10 μM,"[1]; ileum lumen content, Ileum content",34 min
same,half-life at 10 μM,"[1]; jejunum lumen content, Jejunum content",> 60 min
same,IC50,JAK1,> 10000 nM
same,Ki,JAK1,> 501 nM
same,"increase in tofacitinib concentration in cecum, proximal, and distal colon tissue versus oral tofacitinib",[2],five- to seven-fold
same,Ki,JAK3,> 158 nM
